Source: patent US20200237766A1, “PKM2 ACTIVATORS IN COMBINATION WITH REACTIVE OXYGEN SPECIES FOR TREATMENT OF CANCER” (TOLERO PHARMACEUTICALS, INC., priority 2017, published 2020)
Read-outs that look alike come from different tables or passages of the source.

Target: PKM2 (Homo sapiens, UniProt P14618)
Test: PKM2 activation biochemical assay (AC50 / max. response vs fructose 1,6-bisphosphate)
Details: for Max. Resp. (%): % maximum response in a biochemical assay as compared with Fructose 1,6-bisphosphate
[1] = biochemical assay, read-out: PKM2 AC50

PKM2, sequence (P14618 whole entry): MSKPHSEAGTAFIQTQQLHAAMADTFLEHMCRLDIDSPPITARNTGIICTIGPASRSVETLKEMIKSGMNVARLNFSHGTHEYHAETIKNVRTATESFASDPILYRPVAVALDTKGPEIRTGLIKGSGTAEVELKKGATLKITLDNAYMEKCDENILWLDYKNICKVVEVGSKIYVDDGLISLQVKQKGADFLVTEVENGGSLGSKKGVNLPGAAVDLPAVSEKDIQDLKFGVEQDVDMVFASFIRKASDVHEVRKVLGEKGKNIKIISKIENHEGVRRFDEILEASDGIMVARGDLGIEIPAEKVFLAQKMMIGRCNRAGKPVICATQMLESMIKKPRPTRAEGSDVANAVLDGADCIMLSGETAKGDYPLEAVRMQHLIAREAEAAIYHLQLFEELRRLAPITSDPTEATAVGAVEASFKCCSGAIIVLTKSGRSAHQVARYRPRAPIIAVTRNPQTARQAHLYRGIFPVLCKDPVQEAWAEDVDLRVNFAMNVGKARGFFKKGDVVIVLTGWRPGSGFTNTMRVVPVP

Cn1cc(C(=O)c2cccc(Cl)c2Cl)cc1C(N)=O [CA2]
AC50 [1]: 17 µM

Cn1cc(C(=O)c2cccc(Cl)c2Cl)cc1C(=O)NCNC(=O)c1cc(C(=O)c2cccc(Cl)c2Cl)cn1C [CA4]
AC50 [1]: 0.0032 µM

Cn1cc(C(=O)c2cccc(Cl)c2Cl)cc1C(=O)NCCNC(=O)c1cc(C(=O)c2cccc(Cl)c2Cl)cn1C [CA5]
AC50 [1]: 0.014 µM

O=C(c1cc(C(F)(F)F)n[nH]1)N(Cc1ccc(O)cc1F)CC1CCC1 [Compound 1]
Max. Resp. (%): 100%

N#Cc1cc(C(=O)N(Cc2ccc(O)cc2F)CC2CCC2)[nH]n1 [Compound 2]
AC50: 3.79 µM
Max. Resp. (%): 39%

Nc1cc(C(=O)N(Cc2ccc(O)cc2F)CC2CCC2)[nH]n1 [Compound 3]
Max. Resp. (%): 45%
AC50 [1]: 43.8 µM

CC(c1ccccc1)N(CC1CCC1)C(=O)c1cc(N)n[nH]1 (stereo not shown) [Compound 4]
Max. Resp. (%): 52%
AC50 [1]: 1.48 µM

CC(c1ccccc1)N(CC1CCC1)C(=O)c1cc(C(F)(F)F)n[nH]1 (stereo not shown) [Compound 5]
Max. Resp. (%): 106%
AC50 [1]: 4.65 µM

O=C(c1cc(C(F)(F)F)n[nH]1)N(Cc1cccc2[nH]ccc12)CC1CCC1 [Compound 6]
Max. Resp. (%): 100%

O=C(c1cc(C(F)(F)F)n[nH]1)N(Cc1cccc2[nH]c(=O)sc12)CC1CCC1 [Compound 7]
Max. Resp. (%): 87%
AC50 [1]: 3.45 µM

O=C(c1cc(Cl)n[nH]1)N(Cc1cccc2[nH]c(=O)sc12)CC1CCC1 [Compound 9]
Max. Resp. (%): 80%
AC50 [1]: 15.4 µM

O=C(c1cc(Br)n[nH]1)N(Cc1cccc2[nH]c(=O)sc12)CC1CCC1 [Compound 10]
Max. Resp. (%): 127%
AC50 [1]: 2.74 µM

O=C(c1cc(Br)n[nH]1)N(Cc1ccc(O)cc1F)CC1CNC1 [Compound 11]
AC50: 10.4 µM
Max. Resp. (%): 61%

O=C(c1cc(C(F)(F)F)n[nH]1)N(Cc1cccc2[nH]ccc12)CC1COC1 [Compound 12]
Max. Resp. (%): 101%
AC50 [1]: 3.27 µM

CC(C)(C)CN(Cc1cccc2[nH]ccc12)C(=O)c1cc(C(F)(F)F)n[nH]1 [Compound 13]
Max. Resp. (%): 33%
AC50 [1]: 49.1 µM

O=C(c1cc(C(F)(F)F)n[nH]1)N(Cc1cccc2c1CCN2)CC1CCC1 [Compound 14]
Max. Resp. (%): 81%

O=C(c1cc(C(F)(F)F)n[nH]1)N(Cc1ccc(O)cc1F)CC1COC1 [Compound 15]
Max. Resp. (%): 102%
AC50 [1]: 0.15 µM

CCCC(C)N(Cc1ccccc1)C(=O)c1cc(C(F)(F)F)n[nH]1 (stereo not shown) [Compound 16]
Max. Resp. (%): 22%
AC50 [1]: 74.8 µM

CCCCCN(Cc1ccccc1F)C(=O)c1cc(C(F)(F)F)n[nH]1 [Compound 17]
Max. Resp. (%): 83%
AC50 [1]: 0.138 µM

CCCCCN(Cc1ccccc1)C(=O)c1cc(C(F)(F)F)n[nH]1 [Compound 19]
Max. Resp. (%): 76%
AC50 [1]: 0.92 µM

O=C(c1cc(C(F)(F)F)n[nH]1)N(Cc1ccccc1F)CC1COC1 [Compound 20]
Max. Resp. (%): 70%
AC50 [1]: 12 µM

O=C(c1cc(C(F)(F)F)n[nH]1)N(Cc1ccc(O)cc1F)C1CCOCC1 [Compound 21]
AC50 [1]: > 10 µM

O=C(c1cc(C(F)(F)F)n[nH]1)N(Cc1ccccc1F)C1CCOCC1 [Compound 22]
Max. Resp. (%): 99%
AC50 [1]: 1.52 µM

COCCCN(Cc1ccccc1F)C(=O)c1cc(C(F)(F)F)n[nH]1 [Compound 23]
Max. Resp. (%): 75%
AC50 [1]: 7.54 µM

CCOCCN(Cc1ccc(O)cc1F)C(=O)c1cc(C(F)(F)F)n[nH]1 [Compound 24]
Max. Resp. (%): 100%
AC50 [1]: 0.21 µM

O=C(c1cc(C(F)(F)F)n[nH]1)N(Cc1ccccc1F)c1ncco1 [Compound 25]
Max. Resp. (%): 35%
AC50 [1]: 53 µM

O=C(c1cc(C(F)(F)F)n[nH]1)N(CCC1CCOC1)Cc1ccccc1F (stereo not shown) [Compound 26]
Max. Resp. (%): 99%
AC50 [1]: 0.377 µM

O=C(c1cc(C(F)(F)F)n[nH]1)N(Cc1ccccc1Cl)CC1COC1 [Compound 27]
AC50: 33 µM
Max. Resp. (%): 47%

CCOCCN(Cc1ccccc1Cl)C(=O)c1cc(C(F)(F)F)n[nH]1 [Compound 29]
Max. Resp. (%): 87%

CCOCCN(Cc1ccccc1F)C(=O)c1cc(C(F)(F)F)n[nH]1 [Compound 30]
Max. Resp. (%): 72%

COCCCN(Cc1ccccc1Cl)C(=O)c1cc(C(F)(F)F)n[nH]1 [Compound 31]
Max. Resp. (%): 82%
AC50 [1]: 9.59 µM

O=C(c1cc(C(F)(F)F)n[nH]1)N(CCC1CCOCC1)Cc1ccccc1Cl [Compound 32]
Max. Resp. (%): 107%
AC50 [1]: 1 µM

O=C(c1cc(C(F)(F)F)n[nH]1)N(CCC1CCOC1)Cc1c(Cl)cccc1Cl (stereo not shown) [Compound 33]
Max. Resp. (%): 81%
AC50 [1]: 4.03 µM

O=C(c1cc(C(F)(F)F)n[nH]1)N(CCC1CCOC1)Cc1ccc(O)cc1F (stereo not shown) [Compound 34]
Max. Resp. (%): 109%
AC50 [1]: 0.077 µM

O=C(c1cc(C(F)(F)F)n[nH]1)N(Cc1ccccc1Cl)C1CCOCC1 [Compound 35]
AC50: 5.08 µM
Max. Resp. (%): 59%

O=C(c1cc(C(F)(F)F)n[nH]1)N(CCC1CCCOC1)Cc1ccccc1Cl (stereo not shown) [Compound 36]
Max. Resp. (%): 88%
AC50 [1]: 1.22 µM

CC(C)OCCN(Cc1ccccc1Cl)C(=O)c1cc(C(F)(F)F)n[nH]1 [Compound 37]
Max. Resp. (%): 37%
AC50 [1]: 42 µM

CCOCCCN(Cc1ccccc1Cl)C(=O)c1cc(C(F)(F)F)n[nH]1 [Compound 38]
Max. Resp. (%): 47%
AC50 [1]: 33 µM

O=C(c1cc(C(F)(F)F)n[nH]1)N(CCOC1CCCC1)Cc1ccccc1F [Compound 39]
Max. Resp. (%): 30%
AC50 [1]: 47 µM

O=C(c1cc(C(F)(F)F)n[nH]1)N(CCC1CCOC1)Cc1c(F)cccc1F (stereo not shown) [Compound 40]
AC50: 1.17 µM
Max. Resp. (%): 114%

O=C(c1cc(C(F)(F)F)n[nH]1)N(CCC1CCOCC1)Cc1ccccc1F [Compound 41]
Max. Resp. (%): 118%
AC50 [1]: 1.26 µM

CCOCCN(Cc1c(Cl)cccc1Cl)C(=O)c1cc(C(F)(F)F)n[nH]1 [Compound 42]
Max. Resp. (%): 76%
AC50 [1]: 8.78 µM

O=C(c1cc(C(F)(F)F)n[nH]1)N(CCC1CCOC1)Cc1ccccc1Cl (stereo not shown) [Compound 43]
AC50: 1.33 µM
Max. Resp. (%): 110%

O=C(c1cc(C(F)(F)F)n[nH]1)N(CCC1CCCCO1)Cc1ccccc1Cl (stereo not shown) [Compound 44]
Max. Resp. (%): 32%
AC50 [1]: 50 µM

O=C(c1cc(C(F)(F)F)n[nH]1)N(Cc1ccccc1F)CC1CCOCC1 [Compound 45]
Max. Resp. (%): 52%
AC50 [1]: 25.1 µM

O=C(c1cc(C(F)(F)F)n[nH]1)N(CCC1CCCO1)Cc1ccccc1F (stereo not shown) [Compound 46]
Max. Resp. (%): 70%
AC50 [1]: 13.4 µM

CO[C@H]1CC[C@H](N(Cc2ccccc2F)C(=O)c2cc(C(F)(F)F)n[nH]2)CC1 [Compound 47]
Max. Resp. (%): 89%
AC50 [1]: 0.435 µM

CO[C@H]1CC[C@H](N(Cc2cccc(F)c2)C(=O)c2cc(C(F)(F)F)n[nH]2)CC1 [Compound 48]
Max. Resp. (%): 80%
AC50 [1]: 8.58 µM

CO[C@H]1CC[C@H](N(Cc2c(F)cccc2F)C(=O)c2cc(C(F)(F)F)n[nH]2)CC1 [Compound 49]
Max. Resp. (%): 122%
AC50 [1]: 0.914 µM

CO[C@H]1CC[C@H](N(Cc2cc(F)ccc2F)C(=O)c2cc(C(F)(F)F)n[nH]2)CC1 [Compound 50]
AC50: 1.67 µM
Max. Resp. (%): 90%

CO[C@H]1CC[C@H](N(Cc2cc(F)cc(F)c2)C(=O)c2cc(C(F)(F)F)n[nH]2)CC1 [Compound 51]
Max. Resp. (%): 31%
AC50 [1]: 50.4 µM

CO[C@H]1CC[C@H](N(Cc2ccccc2Cl)C(=O)c2cc(C(F)(F)F)n[nH]2)CC1 [Compound 52]
Max. Resp. (%): 100%
AC50 [1]: 0.879 µM

CC(C)O[C@H]1CC[C@H](N(Cc2ccccc2Cl)C(=O)c2cc(C(F)(F)F)n[nH]2)CC1 [Compound 53]
Max. Resp. (%): 63%
AC50 [1]: 2.29 µM

CO[C@H]1CC[C@H](N(Cc2cccc(N)c2)C(=O)c2cc(C(F)(F)F)n[nH]2)CC1 [Compound 54]
Max. Resp. (%): 93%
AC50 [1]: 0.365 µM

CCO[C@H]1CC[C@H](N(Cc2ccccc2F)C(=O)c2cc(C(F)(F)F)n[nH]2)CC1 [Compound 55]
AC50: 0.469 µM
Max. Resp. (%): 101%

CO[C@H]1CC[C@H](N(Cc2ncccc2Cl)C(=O)c2cc(C(F)(F)F)n[nH]2)CC1 [Compound 56]
AC50: 2.58 µM
Max. Resp. (%): 48%

O=C(c1cc(C(F)(F)F)n[nH]1)N(CCC1CCC2(CC1)OCCO2)Cc1ccccc1F [Compound 59]
Max. Resp. (%): 100%
AC50 [1]: 0.494 µM

O=C1CCC(CCN(Cc2ccccc2F)C(=O)c2cc(C(F)(F)F)n[nH]2)CC1 [Compound 60]
Max. Resp. (%): 105%
AC50 [1]: 0.101 µM

O=C(c1cc(C(F)(F)F)n[nH]1)N(CCC1CCS(=O)(=O)C1)Cc1ccccc1Cl (stereo not shown) [Compound 62]
AC50: 0.273 µM
Max. Resp. (%): 105%

O=C(c1cc(C(F)(F)F)n[nH]1)N(CCC1CCS(=O)(=O)C1)Cc1ccccc1F (stereo not shown) [Compound 63]
Max. Resp. (%): 87%
AC50 [1]: 0.24 µM

O=C(c1cc(C(F)(F)F)n[nH]1)N(CCC1CCS(=O)(=O)C1)Cc1c(Cl)cccc1Cl (stereo not shown) [Compound 64]
Max. Resp. (%): 71%
AC50 [1]: 3.78 µM

O=C(c1cc(C(F)(F)F)n[nH]1)N(CCC1CCS(=O)(=O)C1)Cc1c(F)cccc1F (stereo not shown) [Compound 66]
AC50: 0.375 µM
Max. Resp. (%): 102%

O=C(c1cc(C(F)(F)F)n[nH]1)N(CCC1CCS(=O)(=O)C1)Cc1cccc(F)c1 (stereo not shown) [Compound 67]
AC50: 1.63 µM
Max. Resp. (%): 95%

O=C(c1cc(C(F)(F)F)n[nH]1)N(CCC1CCS(=O)(=O)C1)Cc1cccc(F)c1F (stereo not shown) [Compound 68]
Max. Resp. (%): 103%
AC50 [1]: 0.766 µM

O=C(c1cc(C(F)(F)F)n[nH]1)N(CCC1CCS(=O)(=O)C1)Cc1cc(F)cc(F)c1 (stereo not shown) [Compound 69]
Max. Resp. (%): 74%
AC50 [1]: 1.83 µM

O=C(c1cc(C(F)(F)F)n[nH]1)N(CCC1CCS(=O)(=O)C1)Cc1cc(F)ccc1F (stereo not shown) [Compound 70]
Max. Resp. (%): 91%
AC50 [1]: 0.884 µM

O=C(c1cc(C(F)(F)F)n[nH]1)N(Cc1ccccc1F)CC1CCS(=O)(=O)CC1 [Compound 71]
Max. Resp. (%): 71%
AC50 [1]: 10.2 µM

O=C(c1cc(C(F)(F)F)n[nH]1)N(Cc1ccccc1Cl)CC1CCS(=O)(=O)CC1 [Compound 72]
Max. Resp. (%): 22%
AC50 [1]: 19.7 µM
